The record followed here is patent publication US20240024488A1, “COMPOUNDS AND USES THEREOF” (Foghorn Therapeutics Inc., priority 2020, published 2024).

Bounds are passed on as bounds.

In experiment [1] the target is T1, HiBit-BRG1 fusion protein (Homo sapiens, UniProt P51532).
T1 construct: expressed in transfected cells
Nature of the experiment: HiBiT-BRG1 cell-based degradation assay (Nano-Glo HiBiT Lytic Detection, 24 h). To be noted: HeLa cell line expressing HiBit-BRG1 and LgBit; for Dmax: read-out: BRG1 HiBit Degradation Maximum (%); for DC50: read-out: BRMG1 HiBit Degradation IC50. Put shortly: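 Percent degradation derived from lytic HiBiT signal, normalized to DMSO-treated cells and to cells given 2 μM of a known BRM/BRG1 degrader. The HeLa line stably expressed HiBit-BRG1 and LgBit; treatment lasted 24 h at 5000 cells per well.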
In general terms: HiBiT is a short tag that completes a luciferase, so light tracks the accessible tagged protein.

The next experiment addresses T2, HiBit-BRM fusion protein (Homo sapiens, UniProt P51531).
T2 construct: expressed in transfected cells
Nature of the experiment: HiBiT-BRM cell-based degradation assay (Nano-Glo HiBiT Lytic Detection, 24 h). The settings on record: HeLa cell line expressing HiBiT-BRM; for DC50: read-out: BRM HiBit Degradation IC50. Put shortly:
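Percent BRM loss was derived from HiBiT luminescence relative to DMSO-treated cells and cells given 2 μM of a known BRM/BRG1 degrader. Treatment lasted 24 h in HiBiT-BRM HeLa cells, with a top final concentration of 30 μM.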

T1 sequence (P51532 whole entry, the tested form may be a part): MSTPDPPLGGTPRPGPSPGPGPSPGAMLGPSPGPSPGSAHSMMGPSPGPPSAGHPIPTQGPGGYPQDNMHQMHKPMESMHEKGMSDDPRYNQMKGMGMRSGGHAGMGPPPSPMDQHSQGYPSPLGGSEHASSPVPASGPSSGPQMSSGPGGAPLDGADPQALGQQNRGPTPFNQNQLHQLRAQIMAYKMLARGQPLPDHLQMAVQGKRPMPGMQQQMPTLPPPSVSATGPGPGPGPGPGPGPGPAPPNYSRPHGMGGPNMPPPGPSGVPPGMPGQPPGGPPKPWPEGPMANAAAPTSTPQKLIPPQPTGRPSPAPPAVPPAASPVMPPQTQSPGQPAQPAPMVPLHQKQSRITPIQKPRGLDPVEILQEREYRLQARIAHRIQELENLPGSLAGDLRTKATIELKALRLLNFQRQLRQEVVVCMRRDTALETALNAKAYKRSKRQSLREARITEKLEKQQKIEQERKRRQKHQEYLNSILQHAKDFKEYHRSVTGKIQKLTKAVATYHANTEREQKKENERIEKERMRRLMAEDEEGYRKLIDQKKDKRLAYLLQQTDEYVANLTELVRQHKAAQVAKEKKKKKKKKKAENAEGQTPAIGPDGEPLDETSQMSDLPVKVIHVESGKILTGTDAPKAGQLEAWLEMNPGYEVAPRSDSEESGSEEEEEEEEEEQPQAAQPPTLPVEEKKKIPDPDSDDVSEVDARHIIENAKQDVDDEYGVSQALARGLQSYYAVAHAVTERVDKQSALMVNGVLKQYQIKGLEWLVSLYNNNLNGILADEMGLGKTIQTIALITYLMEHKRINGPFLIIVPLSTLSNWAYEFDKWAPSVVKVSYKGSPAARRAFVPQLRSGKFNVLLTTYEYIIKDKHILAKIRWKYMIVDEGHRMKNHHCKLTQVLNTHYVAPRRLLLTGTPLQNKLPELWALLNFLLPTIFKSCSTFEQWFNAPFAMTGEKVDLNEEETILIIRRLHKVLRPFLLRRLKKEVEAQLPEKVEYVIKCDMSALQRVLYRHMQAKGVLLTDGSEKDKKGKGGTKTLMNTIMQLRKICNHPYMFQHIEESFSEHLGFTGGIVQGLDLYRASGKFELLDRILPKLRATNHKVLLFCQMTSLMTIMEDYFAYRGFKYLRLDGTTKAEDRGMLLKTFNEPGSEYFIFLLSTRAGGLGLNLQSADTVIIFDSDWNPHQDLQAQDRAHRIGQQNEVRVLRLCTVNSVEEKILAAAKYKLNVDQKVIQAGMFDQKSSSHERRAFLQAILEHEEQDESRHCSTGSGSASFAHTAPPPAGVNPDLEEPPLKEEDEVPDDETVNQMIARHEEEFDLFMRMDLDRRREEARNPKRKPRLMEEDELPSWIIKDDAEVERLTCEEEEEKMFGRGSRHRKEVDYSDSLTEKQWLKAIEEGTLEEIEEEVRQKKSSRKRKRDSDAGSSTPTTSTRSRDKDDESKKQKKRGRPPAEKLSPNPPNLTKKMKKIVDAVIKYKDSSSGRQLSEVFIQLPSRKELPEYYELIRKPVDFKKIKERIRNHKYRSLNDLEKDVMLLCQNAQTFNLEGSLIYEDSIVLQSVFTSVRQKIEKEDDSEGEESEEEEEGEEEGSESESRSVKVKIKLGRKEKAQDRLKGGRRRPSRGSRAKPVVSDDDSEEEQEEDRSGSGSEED
T2 sequence (P51531 whole entry, the tested form may be a part): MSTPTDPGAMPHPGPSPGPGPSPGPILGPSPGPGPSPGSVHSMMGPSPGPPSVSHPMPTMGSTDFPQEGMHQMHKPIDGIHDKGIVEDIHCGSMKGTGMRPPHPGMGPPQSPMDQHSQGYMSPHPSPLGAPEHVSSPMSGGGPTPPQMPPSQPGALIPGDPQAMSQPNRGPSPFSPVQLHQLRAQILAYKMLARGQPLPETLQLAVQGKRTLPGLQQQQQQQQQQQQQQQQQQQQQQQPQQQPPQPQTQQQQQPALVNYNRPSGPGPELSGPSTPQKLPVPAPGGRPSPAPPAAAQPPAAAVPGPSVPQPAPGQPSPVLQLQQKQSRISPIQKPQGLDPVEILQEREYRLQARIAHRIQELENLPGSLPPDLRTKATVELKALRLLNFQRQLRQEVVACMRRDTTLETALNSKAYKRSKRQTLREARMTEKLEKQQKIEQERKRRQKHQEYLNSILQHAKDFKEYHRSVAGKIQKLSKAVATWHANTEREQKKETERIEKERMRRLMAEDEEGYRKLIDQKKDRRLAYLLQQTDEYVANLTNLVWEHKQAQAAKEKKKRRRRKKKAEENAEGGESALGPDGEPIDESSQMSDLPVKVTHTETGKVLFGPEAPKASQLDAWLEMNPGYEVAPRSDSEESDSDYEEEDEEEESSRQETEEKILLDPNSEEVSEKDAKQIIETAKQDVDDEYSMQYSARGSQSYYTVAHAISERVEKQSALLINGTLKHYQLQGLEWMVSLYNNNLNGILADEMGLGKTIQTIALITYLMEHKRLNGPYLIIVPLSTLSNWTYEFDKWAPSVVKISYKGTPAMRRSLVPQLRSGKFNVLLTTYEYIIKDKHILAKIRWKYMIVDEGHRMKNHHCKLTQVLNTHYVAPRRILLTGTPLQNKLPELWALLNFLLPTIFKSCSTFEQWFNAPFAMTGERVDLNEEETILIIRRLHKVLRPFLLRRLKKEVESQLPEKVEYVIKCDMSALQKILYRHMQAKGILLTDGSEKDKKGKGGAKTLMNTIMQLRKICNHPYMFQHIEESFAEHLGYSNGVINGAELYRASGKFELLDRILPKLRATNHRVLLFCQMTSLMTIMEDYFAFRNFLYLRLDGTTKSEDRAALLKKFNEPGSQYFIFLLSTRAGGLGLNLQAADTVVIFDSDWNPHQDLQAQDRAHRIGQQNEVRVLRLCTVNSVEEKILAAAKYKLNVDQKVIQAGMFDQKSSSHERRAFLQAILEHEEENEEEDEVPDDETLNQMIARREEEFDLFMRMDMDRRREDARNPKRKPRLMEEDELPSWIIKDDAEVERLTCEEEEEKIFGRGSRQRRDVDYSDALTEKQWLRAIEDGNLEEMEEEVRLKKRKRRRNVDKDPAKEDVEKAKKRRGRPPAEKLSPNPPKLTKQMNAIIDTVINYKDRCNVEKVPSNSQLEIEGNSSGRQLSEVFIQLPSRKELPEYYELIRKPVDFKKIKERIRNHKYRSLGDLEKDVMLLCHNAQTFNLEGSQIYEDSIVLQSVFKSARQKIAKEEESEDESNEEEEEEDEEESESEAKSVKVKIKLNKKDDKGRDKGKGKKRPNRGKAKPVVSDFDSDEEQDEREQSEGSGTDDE

For the compound `Cc1ncsc1-c1ccc([C@H](C)NC(=O)[C@@H]2C[C@@H](O)CN2C(=O)[C@@H](c2cc(OCCN3Cc4[nH]c5nnc(-c6ccccc6O)cc5c4C3)no2)C(C)C)cc1` [Compound 123, (2S,4R)-4-hydroxy-1-[(2R)-2-(3-{2-[11-(2-hydroxyphenyl)-4,7,9,10-tetraazatricyclo[6.4.0.0^{2,6}]dodeca-1(12),2(6),8,10-tetraen-4-yl]ethoxy}-1,2-oxazol-5-yl)-3-methylbutanoyl]-N-[(1S)-1-[4-(4-methyl-1,3-thiazol-5-yl)phenyl]ethyl]pyrrolidine-2-carboxamide], the Dmax in experiment [1] was less than 50%. Further, on HiBit-BRM fusion protein, the “BRM HiBit Degradation Maximum (%)” value is “A (“A” indicates maximum degradation ≥ 75%)” and the DC50 is greater than 100 nM.
`Cc1ncsc1-c1ccc(CNC(=O)[C@@H]2C[C@@H](O)CN2C(=O)[C@@H](NC(=O)CCCCCCCNCCC(=O)N2CC(c3cc4cc(-c5ccccc5O)nnc4[nH]3)C2)C(C)(C)C)cc1` (racemic) [Compound 66, (2S,4R)-4-hydroxy-1-((S)-2-(8-((3-(3-(3-(2-hydroxyphenyl)-7H-pyrrolo[2,3-c]pyridazin-6-yl)azetidin-1-yl)-3-oxopropyl)amino)octanamido)-3,3-dimethylbutanoyl)-N-(4-(4-methylthiazol-5-yl)benzyl)pyrrolidine-2-carboxamide]: in experiment [1], the Dmax is less than 50%. Further, at HiBit-BRM fusion protein, the “BRM HiBit Degradation Maximum (%)” value is “C (“C” indicates maximum degradation < 50%)”.
`Cc1ncsc1-c1ccc([C@H](C)NC(=O)[C@@H]2C[C@@H](O)CN2C(=O)[C@@H](c2cc(OCCN3C[C@@H]4[C@H](C3)[C@H]4c3cc4cc(-c5cccc(F)c5O)nnc4[nH]3)no2)C(C)C)cc1` (racemic) [Compound 142, (2S,4R)-1-((R)-2-(3-(2-((1R,5S,6R)-6-(3-(3-fluoro-2-hydroxyphenyl)-7H-pyrrolo[2,3-c]pyridazin-6-yl)-3-azabicyclo[3.1.0]hexan-3-yl)ethoxy)isoxazol-5-yl)-3-methylbutanoyl)-4-hydroxy-N-((S)-1-(4-(4-methylthiazol-5-yl)phenyl)ethyl)pyrrolidine-2-carboxamide]: the Dmax in experiment [1] was less than 50%. In addition, at HiBit-BRM fusion protein, the “BRM HiBit Degradation Maximum (%)” value is “A (“A” indicates maximum degradation ≥ 75%)” and the DC50 was greater than 10 nM.
For the compound `Cc1ncsc1-c1ccc([C@H](C)NC(=O)[C@@H]2C[C@@H](O)CN2C(=O)[C@@H](c2cc(OCCN(C)[C@@H]3CCc4[nH]c5nnc(-c6ccccc6O)cc5c4C3)no2)C(C)C)cc1` [Compound 156, (2S,4R)-4-hydroxy-1-((R)-2-(3-(2-(((R)-3-(2-hydroxyphenyl)-6,7,8,9-tetrahydro-5H-pyridazino[3,4-b]indol-6-yl)(methyl)amino)ethoxy)isoxazol-5-yl)-3-methylbutanoyl)-N-((S)-1-(4-(4-methylthiazol-5-yl)phenyl)ethyl)pyrrolidine-2-carboxamide], the Dmax in experiment [1] was less than 50%. For the same compound, on HiBit-BRM fusion protein, the “BRM HiBit Degradation Maximum (%)” value was “A (“A” indicates maximum degradation ≥ 75%)” and the DC50 was greater than 10 nM.
Turning to `Cc1ncsc1-c1ccc([C@H](C)NC(=O)[C@@H]2C[C@@H](O)CN2C(=O)[C@@H](c2cc(N3CCC(CN4CCc5[nH]c6nnc(-c7ccccc7O)cc6c5[C@@H]4C)CC3)no2)C(C)C)cc1` (racemic) [Compound 83, (2S,4R)-4-hydroxy-1-[(2R)-2-[3-(4-{[(3S)-12-(2-hydroxyphenyl)-3-methyl-4,8,10,11-tetraazatricyclo[7.4.0.0^{2,7}]trideca-1(13),2(7),9,11-tetraen-4-yl]methyl}piperidin-1-yl)-1,2-oxazol-5-yl]-3-methylbutanoyl]-N-[(1S)-1-[4-(4-methyl-1,3-thiazol-5-yl)phenyl]ethyl]pyrrolidine-2-carboxamide], in experiment [1], the Dmax was greater than 75% and the DC50 is greater than 10 nM. In addition, on HiBit-BRM fusion protein, the “BRM HiBit Degradation Maximum (%)” value is “A (“A” indicates maximum degradation ≥ 75%)” and the DC50 was greater than 10 nM.
As to `Cc1ncsc1-c1ccc([C@H](C)NC(=O)[C@@H]2C[C@@H](O)CN2C(=O)[C@@H](c2cc(N(C)CCN3CC(c4cc5cc(-c6ccccc6O)nnc5[nH]4)C3)no2)C(C)C)cc1` (racemic) [Compound 256], the Dmax in experiment [1] was less than 50%. Moreover, on HiBit-BRM fusion protein, the “BRM HiBit Degradation Maximum (%)” value is recorded as “A (“A” indicates maximum degradation ≥ 75%)” and the DC50 was greater than 100 nM.
Regarding `Cc1ncsc1-c1ccc(CNC(=O)[C@@H]2C[C@@H](O)CN2C(=O)[C@@H](NC(=O)CCCC(=O)NC23CC(c4cc5cc(-c6ccccc6O)nnc5[nH]4)(C2)C3)C(C)(C)C)cc1` (racemic) [Compound 301, N1-((S)-1-((2S,4R)-4-hydroxy-2-((4-(4-methylthiazol-5-yl)benzyl)carbamoyl)pyrrolidin-1-yl)-3,3-dimethyl-1-oxobutan-2-yl)-N5-(3-(3-(2-hydroxyphenyl)-7H-pyrrolo[2,3-c]pyridazin-6-yl)bicyclo[1.1.1]pentan-1-yl)glutaramide], the Dmax in experiment [1] was less than 50%. In addition, at HiBit-BRM fusion protein, the “BRM HiBit Degradation Maximum (%)” value was “B (“B” indicates maximum degradation ≥ 50%)” and the DC50 was greater than 1000 nM.
Take `Cc1ncsc1-c1ccc([C@H](C)NC(=O)[C@@H]2C[C@@H](O)CN2C(=O)[C@@H](c2cc(OCCN3CC[C@H](c4[nH]c5nnc(-c6ccccc6O)cc5c4C)C3)no2)C(C)C)cc1` (racemic) [Compound 258, (2S,4R)-4-hydroxy-1-((R)-2-(3-(2-((S)-3-(3-(2-hydroxyphenyl)-5-methyl-7H-pyrrolo[2,3-c]pyridazin-6-yl)pyrrolidin-1-yl)ethoxy)isoxazol-5-yl)-3-methylbutanoyl)-N-((S)-1-(4-(4-methylthiazol-5-yl)phenyl)ethyl)pyrrolidine-2-carboxamide]: in experiment [1], the Dmax was greater than 75% and the DC50 is greater than 10 nM. At HiBit-BRM fusion protein, the “BRM HiBit Degradation Maximum (%)” value is listed as “A (“A” indicates maximum degradation ≥ 75%)” and the DC50 is less than 10 nM.
Take `Cc1ncsc1-c1ccc([C@H](C)NC(=O)[C@@H]2C[C@@H](O)CN2C(=O)[C@@H](c2cc(OCCNC(=O)C(=O)N3CC(c4c[nH]c5nnc(-c6ccccc6O)cc45)C3)no2)C(C)C)cc1` (racemic) [Compound 250, (2S,4R)-4-hydroxy-1-((R)-2-(3-(2-(2-(3-(3-(2-hydroxyphenyl)-7H-pyrrolo[2,3-c]pyridazin-5-yl)azetidin-1-yl)-2-oxoacetamido)ethoxy)isoxazol-5-yl)-3-methylbutanoyl)-N-((S)-1-(4-(4-methylthiazol-5-yl)phenyl)ethyl)pyrrolidine-2-carboxamide]: in experiment [1], the Dmax is less than 50%. On HiBit-BRM fusion protein, the “BRM HiBit Degradation Maximum (%)” value is “A (“A” indicates maximum degradation ≥ 75%)” and the DC50 was greater than 100 nM.
Taken in the same sequence, the figures for `Cc1ncsc1-c1ccc([C@H](C)NC(=O)[C@@H]2C[C@@H](O)CN2C(=O)[C@@H](c2cc(C3CN(Cc4cc5cc(-c6ccccc6O)nnc5[nH]4)C3)no2)C(C)C)cc1` (racemic) [Compound 138, (2S,4R)-4-hydroxy-1-((R)-2-(3-(1-((3-(2-hydroxyphenyl)-7H-pyrrolo[2,3-c]pyridazin-6-yl)methyl)azetidin-3-yl)isoxazol-5-yl)-3-methylbutanoyl)-N-((S)-1-(4-(4-methylthiazol-5-yl)phenyl)ethyl)pyrrolidine-2-carboxamide] were less than 50%, “A (“A” indicates maximum degradation ≥ 75%)” and greater than 10 nM.
Consider `Cc1ncsc1-c1ccc([C@H](C)NC(=O)[C@@H]2C[C@@H](O)CN2C(=O)[C@@H](c2cc(OCCN3CCC[C@H]3c3c[nH]c4nnc(-c5ccccc5O)cc34)no2)C(C)C)cc1` (single isomer, unassigned) [Compound 227], for which, in experiment [1], the Dmax was less than 50%. Besides, the “BRM HiBit Degradation Maximum (%)” value on HiBit-BRM fusion protein was “C (“C” indicates maximum degradation < 50%)”.
